Measured values as given in patent US7794936B1, “Using thymidine analogs to improve replication in an expanded genetic alphabet” (priority 2006, dated 2010).

What was measured:
2-aminoadenine = details: cited from earlier work
KlenTaq polymerase [1] = molecular target: T1, KlenTaq polymerase (Thermus aquaticus, UniProt P19821); assay: Running-start primer extension reactions, incorporation opposite template isoG; format: biochemical; details: template T-1, primer P-1, 72° C.; for incorporation / misincorporation opposite isoG (gel band, in words): time points 0.5, 1.0, 3.0 min
T1 construct: The “Klenow” fragment of Taq polymerase (Titanuim™ Taq) was purchased from BD Biosciences; purchased BD Biosciences (Mountain View, Calif.)
Procedure: (§1) The “Klenow” fragment of Taq polymerase (Titanuim™ Taq) was purchased from BD Biosciences (Mountain View, Calif.). As Titanium™ Taq is a “hot start” enzyme, the enzyme was heated to 95° C. for 2 minutes, followed by rapid cooling to ambient temperature prior to any primer extension reactions. Similarly, all polymerase chain reactions included an initial 2 minute 95° C. denaturation cycle.
In a typical primer extension reaction (25 μL total volume), 5′-^32P labeled primer (P-1, 25 pmol) and template (T-1, 30 pmol) were mixed with buffer (10 mM bis-trispropane-HCl pH 9.1, 5 mM MgCl2, 40 mM potassium acetate, 0.1 mg/ml bovine serum albumin), heated (95° C., 5 min), and cooled to room temperature over 1 hour. Polymerase (1 unit) was added, and the mixture again heated (72° C., 10 sec). Each PCR was initiated by adding the appropriate dNTPs (100 μM final concentration). Aliquots (2 μL) were removed from the mixture at time intervals, diluted into a PAGE loading/quench buffer (2 μL, 20 mM EDTA in formamide), heated (95° C., 5 min) and resolved by electrophoresis using a 20% PAGE (7 M urea). The gel was analyzed by phosphorimager. To enhance reproducibility, master mixes of the primer/template in buffer were prepared in large scale (100 μL).
Running-start primer extension reactions were performed with KlenTaq to determine the ability of the enzyme to incorporate either TTP or 2-thioTTP opposite isoG. For each reaction, the polymerase was challenged to misincorporate the respective triphosphate opposite the isoG residue at position 26 in the template (T-1), 3 nucleotides downstream of the primer (Pf-1) terminus. Reactions were run in parallel, one containing dGTP and TTP, one containing dGTP and 2-thioTTP, one containing dGTP and isoCTP (positive control), and one containing only dGTP (negative control). Aliquots of each reaction were quenched at various times and analyzed by PAGE on a 20% polyacrylamide gel.

KlenTaq polymerase [2] = molecular target: T1, KlenTaq polymerase; assay: Direct nucleotide competition, single-turnover primer extension with APM gel separation; format: biochemical
Procedure: as §1
Single turnover primer extension reactions were performed by annealing 5′-^32P labeled primer (P-2f, 1 pmol) and template (T-2 or T-3, 1 pmol) in the appropriate buffer described above. Polymerase (1 pmol) was added, and the mixture was heated (72° C., 10 sec). The reaction was initiated by adding isoCTP (100 μM) and either 2-thioTTP (100 μM) or TTP (100 μM) in the presence of unlabeled trap DNA (P-2f, 100 pmol, T-2, 100 pmol). The reaction was quenched (20 mM EDTA in HCONH2) after 20 sec, and the samples resolved by 20% PAGE (7 M urea) containing p-acrylamidophenylmercury chloride (APM, 1 μg/mL). […] APM was synthesized as described [Igl88].
In two parallel reactions, one containing equal concentrations of 2-thioTTP and TTP, and one containing equal concentrations of 2-thioTTP and isoCTP, KlenTaq polymerase was challenged to choose a nucleotide to incorporate opposite isoG. […] The gel was analyzed via radioimaging.

KlenTaq polymerase [3] = molecular target: T1, KlenTaq polymerase; assay: PCR amplification using 2-thioTTP as substitute for TTP (30 rounds, template T-3); format: biochemical; details: 30 rounds of PCR, dATP, dCTP, dGTP plus thymidine analog, 2% agarose gel
Procedure: as §1
Amplicons testing the substitution of 2-thioTTP for TTP in a PCR were generated as above, using primers P-2f and P-2r (1 pmol each), template T-3 (6×10^4 molecules), and either all four natural dNTPs (100 μM each) or by substituting 2-thioTTP for TTP.
After showing that 2-thioTTP is misincorporated less frequently than TTP opposite isoG residues, we then established that 2-thioTTP works in a PCR amplification. For this purpose, replicate polymerase chain reactions with KlenTaq polymerase were performed using the PCR replicon consisting of primers P-2f and P-2r and template T-3. Three reactions were run in parallel, one containing the four natural dNTPs (positive control), one containing dCTP, dGTP, dATP, and 2-thioTTP, and one without TTP (negative control). Each amplification was cycled for 30 rounds, and the products were analyzed by electrophoresis on a 2% agarose gel.

KlenTaq polymerase [4] = molecular target: T1, KlenTaq polymerase; assay: PCR fidelity assay of isoC:isoG base pair replication (acid cleavage at isoC); format: biochemical; details: six letter PCR, template T-2, 30 cycles, fit to Y=100×(½+f/2)^x
Procedure: as §1
For each 6-letter nucleotide system investigated, seven parallel PCR mixtures were cycled (30 rounds, 95° C. for 45 sec. then 45° C. for 45 sec. then 72° C. for 1.5 min) with the same amounts of primers P-2f (^32P labeled) and P-2r (1 pmol; 6×10^11 molecules) and varying concentrations of template T2. […] As each 10 fold dilution in template was equivalent to ca. 3.3 rounds of amplification, the fidelity of the isoC:isoG replication could be monitored on a round-by-round basis, with each amplicon requiring a different number of exponential amplifications to consume the primers (Table 2.)
Following amplification, the mixtures were treated with an equal volume of acetic acid (0.1 mM), and heated (95° C., 30 min), a procedure that depyrimidinylates the iso-cytidines that have been incorporated. […] The NH4OH was allowed to evaporate, and the mixtures diluted in 2 volumes of gel loading buffer (98% formamide, 10 mM EDTA, 1 mg/mL bromophenol blue, 1 mg/mL xylene cyanol FF) and analyzed by denaturing PAGE (17%). […]

T1 sequence (P19821 281-832 limits assumed): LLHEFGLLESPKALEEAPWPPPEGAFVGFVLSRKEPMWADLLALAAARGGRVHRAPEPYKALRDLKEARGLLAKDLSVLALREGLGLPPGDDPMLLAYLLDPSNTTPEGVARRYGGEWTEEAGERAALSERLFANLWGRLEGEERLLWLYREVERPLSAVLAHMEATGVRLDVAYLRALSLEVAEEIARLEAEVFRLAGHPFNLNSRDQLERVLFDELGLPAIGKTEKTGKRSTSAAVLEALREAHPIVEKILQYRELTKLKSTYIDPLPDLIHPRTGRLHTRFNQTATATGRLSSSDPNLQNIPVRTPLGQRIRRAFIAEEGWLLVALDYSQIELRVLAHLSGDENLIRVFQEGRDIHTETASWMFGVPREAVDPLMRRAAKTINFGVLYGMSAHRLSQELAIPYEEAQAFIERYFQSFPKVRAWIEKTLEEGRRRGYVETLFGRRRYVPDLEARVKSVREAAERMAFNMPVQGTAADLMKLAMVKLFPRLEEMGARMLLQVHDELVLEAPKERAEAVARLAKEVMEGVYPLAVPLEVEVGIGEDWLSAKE

Structure (SMILES)	decrease in Tm by pair with 2-aminoadenine (2-aminoadenine; 20 nucleotide duplex) [°C]	destabilization of the duplex (ΔG) by pair with 2-aminoadenine (2-aminoadenine; nucleobase pair between 2-thioT and 2-aminoadenine) [kJ/mol]	incorporation / misincorporation opposite isoG (gel band, in words) (KlenTaq polymerase [1])	substrate preference for incorporation opposite adenosine (KlenTaq polymerase [2]; 2-thioTTP and TTP in competition, template T-3)	extended product resulting from incorporation of 2-thioTTP opposite isoG (KlenTaq polymerase [2]; equal concentrations (100 μM) of 2-thioTTP and either TTP or isoCTP, template T-2, primer P-2f, 20 sec)	amount of PCR product (KlenTaq polymerase [3])	fidelity-per-round of PCR for isoC:isoG base pair (KlenTaq polymerase [4]) [%]	incorporation opposite isoG, isoCTP relative to TTP (KlenTaq polymerase [1]; after one and three minutes of incubation, dNTPs 100 μM)
Cc1cn([C@H]2C[C@H](O)[C@@H](CO)O2)c(=S)[nH]c1=O [2-thioT, 2-thiothymidine]	2.4	3.3						
Cc1cn([C@H]2C[C@H](O)[C@@H](COP(=O)(O)OP(=O)(O)OP(=O)(O)O)O2)c(=S)[nH]c1=O [2-thioTTP, 2-thiothymidine triphosphate]			misincorporated very little	prefers 2-thioTTP over TTP	less than 1%	comparable amounts of product	98	
Nc1nc(=O)ccn1[C@H]1C[C@H](O)[C@@H](COP(=O)(O)OP(=O)(O)OP(=O)(O)O)O1 [isoCTP, 2′-deoxy-iso-cytidine triphosphate]			incorporated most efficiently					approximately 2 fold
